Source: patent US20140248383A1, “SLEEP QUALITY IMPROVING AGENT” (LION CORPORATION, priority 2011, published 2014)

Tested on: male C57BL/6 mice
Test: Measurement of amount of activity of mice (sleep inducing effect)
Assay type: in vivo
Method: When a sample has the function of inducing sleep, the amount of activity always decreases after administration of the sample. Therefore, the sleep inducing effect of each sample was evaluated by determining whether or not the administration of the sample solution to a mouse caused a reduction in the amount of activity.
8-Week old or 9-week old male C57BL/6 mice were purchased from Japan SLC, Inc. and acclimatized for 3 to 6 days. The amount of activity during acclimatization was used to divide the mice into administration groups. Immediately before the onset of the dark period, Fraxinus excelsior L. extract was orally administered in an amount of 3 g/kg per body weight of a mouse (Example 1-1), or a 0.5% by mass aqueous methyl cellulose solution was orally administered in an amount of 10 mL/kg per body weight of a mouse (Comparative Example 1-1), and the amount of activity was measured for 24 hours after administration. Each administration group included 8 mice (n=8).
The amount of activity was measured under the following conditions. The mice were raised in individual cages, and an infrared camera was disposed above each cage. The imaging range of the infrared camera was divided into 64 sections, and the number of occurrences that the mouse crossed a section was measured. The number of occurrences was collected every 30 minutes. […]

In the case of `O=C1c2c(O)cc(O)cc2O[C@H](c2ccc(O)c(O)c2)[C@H]1O` [DIHYDROQUERCETIN, dihydroquercetin], the “cumulative amount of activity 6 hours after administration” value (dihydroquercetin 2.7 g/kg oral immediately before dark period, n=4) is reported as 4700 number of occurrences/6 hours and the “cumulative amount of activity 6 hours after administration compared to control solution” value (dihydroquercetin 2.7 g/kg oral, n=4, significant difference at p<0.01) is reported as “significantly lower”.
